Experimental data from patent US20080090788A1, “Chemical Compounds” (priority 2005, published 2008).

Assays:
TIMP1 promoter = TIMP1 promoter luciferase activity in transfected activated HSC; format: cell-based; conditions: SFZ 1 mM, 3a 0.150 mM, 3e 0.127 mM, 3f 0.089 mM, 24 hours, rat HSC
Experimental: (§1) For HSC transfections, activated HSC were transfected by the non-liposomal Effectene protocol (Qiagen, UK) using 1 μg reporter plasmid DNA and 10 ng of control Renilla plasmid pRLTK (Promega, Southampton, UK) according to the manufacturer's instructions. After 24 hours, HSC were treated with test compounds for a further 24 hours. Luciferase assays were performed using a dual luciferase kit (Promega) according to the manufacturer's instructions. Firefly luciferase activities were normalised for differences in transfection efficiency by measurement of the activity of the co-transfected pRLTK. The pIκBα wt-Luc plasmid contains nucleotides −332 to +35 of the human IkB-α promoter cloned upstream of luciferase gene (Oakley F, et al, J Biol Chem 2003; 278: 24359-70). The pTIMP1-Luc plasmid contains the 162 bp human TIMP1 minimal promoter cloned upstream of luciferase gene (Bertrand-Philippe M, et al. J Biol Chem 2004; 279: 24530-9). The pAP1-Luc plasmid (Stratagene, UK) contains 7 copies of a consensus AP-1 binding site upstream of the minimal promoter and the luciferase gene.
(§2) To extend these findings, further analyses were performed using the […] promoter which contains multiple NF-kB binding sites and is a well studied NF-kB target. […] Consistent with the presence of activated NF-kB in HSC, (Wright M C et al, Gastroenterology 2001; 121: 685-98.) the IkB-α promoter was activated in HSC (FIG. 2a). SFZ (1 mM) inhibited promoter activity by >60%. […] Therefore, the improved inhibitory activity of analogues 3a, 3e and 3f is specific for NF-kB mediated transcription and is not restricted to U937 cells or artificial promoter constructs.
(§3) Rat HSC were transfected with (A) IkB-α-Luc, (B) TIMP1-Luc or (C) pAP-1-Luc reporter constructs. After 24 hours, cells were treated with sulfasalazine (1 mM), 3a (0.150 mM), 3e (0.127 mM), 3f (0.089 mM), or treated with DMSO as a control. Luciferase activity was determined after another 24 hours. Data presented are mean luciferase activity (±SEM) relative to control cells (value set to 100), derived from two separate experiments, each performed in duplicate and using an independent preparation of HSC.

[1] = tested on: AP-1 transcription factor binding sites; assay: AP-1 reporter construct luciferase activity in transfected activated HSC; format: cell-based; conditions: SFZ 1 mM, 3a 0.150 mM, 3e 0.127 mM, 3f 0.089 mM, 24 hours, rat HSC
Experimental: as §1, §2, §3

IkB-α = IkB-α phosphorylation and degradation by immunoblotting in LPS-stimulated U937 cells; format: cell-based, human; conditions: 30 minutes after LPS; for effect on IkB-α phosphorylation and degradation: 1 hour pretreatment
Experimental: Western blotting was performed as previously described (Brimmell M, Burns J S, Munson P, et al. High level expression of differentially localized BAG-1 isoforms in some oestrogen receptor-positive human breast cancers. Br J Cancer 1999; 81: 1042-51). IkB-α and phospho-Ser32 specific IkB-α antibodies were from Cell Signaling Technology (Hitchin, UK). The PARP antibody (C2-10 clone) was from R&D Systems (Abingdon, UK).
To determine the kinetics of modulation of IkB-α by LPS, U937 cells were treated with LPS for up to 120 minutes and total IkB-α and phosphorylated IkB-αanalysed by immunoblotting. There was a rapid accumulation of phosphorylated IkB-α, accompanied by IkB-α degradation (FIG. 3a). To confirm that the enhanced NF-kB inhibitory activity of compounds 3a, 3e and 3f was due to increased inhibition of IKK, we pretreated cells with these compounds and then stimulated them with LPS. IkB-α was analysed at 30 minutes after the addition of LPS because it was possible to monitor both phosphorylation and degradation at this time. […] Therefore, the improved NF-kB inhibitory activity of compounds 3a, 3e and 3f is associated with effective inhibition of IkB-α phosphorylation.
(A) U937-kBluc cells were treated with LPS for the indicated times and expression of total IkB-α and phosphorylated IkB-α determined by immunoblotting. (B) U937-kBluc cells were pretreated with the indicated concentrations of compounds or left untreated. After 1 hour, cells were stimulated with LPS. Control cells were cultured in the absence of LPS. Cells were harvested after 30 minutes and the expression of total IkB-α and phosphorylated IkB-α determined by immunoblotting. The signals were quantified by digital image analysis and the fold increase in IkB-α phosphorylation and percent expression of total IkB-α relative to control cells is shown.

ARH77 cells = assay: Cell death in ARH77 cells, propidium iodide flow cytometry; format: cell-based; conditions: Homo sapiens, ARH-77; 20 hours, PI uptake; mean of two determinations ±SD; read-out: IC50 for induction of ARH77 cell death
Experimental: A flow cytometry method was used to determine the ability of SFZ analogues to induce cell death in ARH77 cells. The proportion of cells that had lost plasma membrane integrity was used as a measure of cell viability. ARH77 (5×10^4) cells were incubated in a volume of 200 μl in 96 well plates with compound, an equivalent amount of DMSO or were left untreated as a control. After 20 hours, cells were washed in phosphate buffered saline (PBS), resuspended in PBS containing 1 μg/ml propidium iodide (PI) for 10 minutes. Cells were analysed using a FACSCalibur (BD Biosciences, Oxford, UK) using the FL2 channel. […] The proportion of cells with intense fluorescence as a proportion of total cells was calculated.
To assess cell death promoting activity, the ability of SFZ and the analogues with enhanced NF-kB inhibiting activity (3a, 3e and 3f) to kill Epstein-Barr virus transformed human B-cells, which are dependent on NF-kB for survival was compared (Cahir-McFarland E D, Carter K, Rosenwald A, et al. Role of NF-kB in cell survival and transcription of latent membrane protein 1-expressing or Epstein-Barr virus latency III-infected cells. J Virol 2004; 78: 4108-4119). […] Dose response experiments were performed to determine IC50 values (FIG. 4b).
ARH77 cells were incubated with various concentrations of SFZ, compounds 3a, 3e and 3f, DMSO as a solvent control, or were left untreated. […] (A) Representative histogram of fluorescence in untreated, DMSO or compound 3e (250 μM) treated cells. (B) Representative dose response experiment (□, untreated; ♦, DMSO; ▴, SFZ; ●, 3a; +, 3e; ×, 3f). Each data point is the mean of duplicate determinations (±SD). (C) Mean IC50 values (±SD) for induction of ARH77 cell death, derived from two independent experiments each performed in duplicate.

Compound	effect on TIMP1 promoter activity (TIMP1 promoter)	effect on activity of AP-1 reporter construct [1]	effect on IkB-α phosphorylation and degradation (IkB-α; 200 μM)	effect on IkB-α phosphorylation and degradation (IkB-α; 500 μM)	IC50 (ARH77 cells) [µM]	effect on regulation of IkB-α (IkB-α; 1 mM)
COc1ccc(CNS(=O)(=O)c2ccc(/N=N/c3ccc(O)c(C(=O)O)c3)cc2)cc1 [Compound 3a, 2-hydroxy-5-[4-(4-methoxy-benzylsulfamoyl)-phenylazo]-benzoic acid]	neither SFZ or the analogues interfered with TIMP1 promoter activity	neither SFZ or the analogues interfered	partially effective	prevented IkB-α phosphorylation and degradation	499 ± 93	–
Cc1cc(/N=N/c2ccc(S(=O)(=O)NCc3ccc(C(F)(F)F)cc3)cc2)cc(C(=O)O)c1O [Compound 3e, 2-hydroxy-3-methyl-5-[4-(4-trifluoromethyl-benzylsulfamoyl)-phenylazo]-benzoic acid]	neither SFZ or the analogues interfered with TIMP1 promoter activity	neither SFZ or the analogues interfered	partially effective	prevented IkB-α phosphorylation and degradation	195 ± 38	–
O=C(O)c1cc(/N=N/c2ccc(S(=O)(=O)NCc3ccc(C(F)(F)F)cc3)cc2)ccc1O [Compound 3f, 2-hydroxy-5-[4-(4-trifluoromethyl-benzylsulfamoyl)-phenylazo]-benzoic acid]	neither SFZ or the analogues interfered with TIMP1 promoter activity	neither SFZ or the analogues interfered	partially effective	prevented IkB-α phosphorylation and degradation	407 ± 11	–
O=C(O)c1cc(/N=N/c2ccc(S(=O)(=O)Nc3ccccn3)cc2)ccc1O [SFZ, Sulfasalazine, reference compound]	neither SFZ or the analogues interfered with TIMP1 promoter activity	neither SFZ or the analogues interfered	–	–	1100 ± 250	only very modest effects
